In brackets after ≈: the same amount, converted by molar mass. Non-standard residues stand in square brackets, D forms with d. Residues, ends and D or L forms follow the SMILES beside them. *: point of attachment. 12Ado = NCCCCCCCCCCCC(=O)O; Decanoyl = CCCCCCCCCC(=O)*; Orn = NCCC[CH](N)C(=O)O
Assays:
[1] = Critical aggregation concentration by light scattering in PBS; type: physicochemical; conditions: light scattering in phosphate-buffered saline
Experimental: (§1) Organization of the compounds in aqueous solution was assessed by light-scattering measurements in phosphate buffered saline (PBS; 10 mM Na2HPO4, 150 mM NaCl, pH=7.0). Hemolytic assays were performed as described elsewhere, using fresh mouse red blood cells.
(§2) The mean value (±SD) is shown for Compound C; Minimum inhibitory concentration (MIC) of compounds required to inhibit bacterial proliferation after overnight incubation.

Hemolytic assay = type: cell-based; conditions: fresh mouse red blood cells (1%); hemolysis of 50% of mouse red blood cells (1%) after 3 hours in PBS; read-out: LC50, fifty percent lethal concentration (hemolysis)
Experimental: as §1, §2

E. coli = assay: Minimal bactericidal concentration; type: cell-based; conditions: Escherichia coli
K. pneumoniae = assay: Minimal bactericidal concentration; type: cell-based; conditions: Klebsiella pneumoniae
[2] = Maximum tolerated dose, single-dose subcutaneous administration; type: in vivo; conditions: subcutaneous 20 mg/kg, mice
Experimental: Mortality was monitored for 7 days thereafter. Pharmacokinetic studies were performed as described elsewhere.

Escherichia coli 25922 [3] = assay: Checkerboard assay with lysozyme in broth medium; type: cell-based
Experimental: (§3) Inhibition was determined after 24 hours of incubation.

[4] = tested on: Klebsiella pneumoniae 1287; assay: Checkerboard assay with lysozyme in broth medium; type: cell-based; conditions: growth medium, 2.5, 5, 10 μM Compound B combined with lysozyme, 24 hours
Experimental: as §3

E. coli 25922 [5] = assay: Growth kinetics by absorbance at 620 nm; type: cell-based, Escherichia coli; conditions: 10 μM Compound B, culture medium
Experimental: (§4) FIGS. 6A-B present growth kinetics assessed by measuring the absorbance at 620 nm of E. coli 25922 (FIG. 6A) and K. pneumoniae 1287 (FIG. 6B) in absence or presence of the 10 μM of Compound B (circles denote vehicle control, triangles denote Compound B; error bars represent standard deviations).

K. pneumoniae 1287 = assay: Growth kinetics by absorbance at 620 nm; type: cell-based, Klebsiella pneumoniae; conditions: 10 μM Compound B, culture medium
Experimental: as §4

Escherichia coli 25922 [6] = assay: Mouse peritonitis-sepsis model; type: in vivo
Experimental: A mouse peritonitis-sepsis model was created as described elsewhere. Infection was obtained after intraperitoneal injection of bacteria from a logarithmic-phase culture. Infected mice were treated subcutaneously. The doses were selected to allow comparison with the reference compound and to remain below the maximum tolerated dose after double-dose administration. […] Briefly, mouse peritonitis sepsis model for in vivo studies were performed using male ICR mice ([…]) obtained from Envigo Laboratories (Rehovot, Israel). […] Infection was obtained by intraperitoneal injection of a logarithmic phase culture of E. coli 25922 (1.3±0.2×10^6 CFU permouse in 0.3 ml PBS). […] Infection control mice were injected with the PBS vehicle. Mouse survival was monitored for up to 7 days after treatment. Statistical analyses were performed by paired Student's t test, at α=0.05.

[7] = tested on: Klebsiella pneumoniae 1287; assay: Mouse peritonitis-sepsis model; type: in vivo; conditions: for survival frequency: neutropenic ICR mice infected i.p.
Escherichia coli 25922 [8] = assay: Mouse thigh infection model; type: in vivo; conditions: normal mice inoculated intramuscularly, treated s.c. 1 hour thereafter, CFU 24 hours post-treatment
Experimental: (§5) Mouse thigh infection model was afforded from normal ICR mice, which were inoculated intramuscularly and treated subcutaneously 1 hour thereafter with a tested compound or polymyxin B (PMB; Sigma-Aldrich) as described elsewhere. P values were calculated using a 1-tailed t test (assuming unequal variance). A P value of <0.05 is considered statistically significant.

[9] = tested on: Klebsiella pneumoniae 1287; assay: Mouse thigh infection model; type: in vivo; conditions: normal mice inoculated intramuscularly, treated s.c. 1 hour thereafter
Experimental: as §5

E. coli 25922 [10] = assay: Cytoplasmic membrane depolarization (DiSC35); type: cell-based, Escherichia coli; conditions: low Compound B concentrations
Experimental: Cytoplasmic membrane depolarization measurements were assessed by monitoring the displacement of 3,39-dipropylthiadicarbocyanine iodide (DiSC35), a lipophilic potentiometric dye. Mid-logarithmic phase E. coli 25922 at OD 0.6 nm was centrifuged for 5 min at 15,000 g. The pellet was washed twice with 5 mM HEPES containing 5 mM glucose and 2 mM EDTA before addition of DiSC35 ([…]) and quenching at room temperature in the dark for 1 hour. KCl was then added (100 mM) and the suspension incubated overnight (4° C.). One hundred eighty microliters of this bacterial suspension was placed in a black 96-well plate, and fluorescence was recorded until signal stabilization (excitation 620 nm, emission 680 nm). Thereafter […] of the tested compound was added and the fluorescence recorded for up to 30 minutes at 37° C. with shaking. Data were obtained from at least 2 independent experiments performed in duplicate.
(FU denotes fluorescence units; triangles denote Compound B, circles denote PMB, squares denote untreated control; error bars=SD).

[11] = tested on: resistance—nodulation—division deletion mutant; assay: MIC on efflux mutant; type: cell-based; conditions: Escherichia coli
From the text: (§6) The following strains were used for the studies below: Escherichia coli strain ML-35p (American Type Culture Collection [ATCC]; […]. The following gram-positive species was investigated: methicillin-resistant Staphylococcus aureus clinical isolate USA300 10017 (a gift from Dr. Gili Regev-Yochay, Infectious Disease Unit, Sheba Medical Center, Israel). Additional Escherichia coli strains tested include β-lactamase producer 35218; clinical isolate strains 14182, 14384, and U16327; and two K12 isogenic mutants, AG100 and AG100A. Unless otherwise stated, all bacterial cultures were grown overnight in Luria-Bertani broth (LB).
(§7) Minimal inhibitory concentrations (MICs) were determined as previously described. […] MICs were determined by microdilution susceptibility testing in 96-well plates (by Nunc) using inocula of 10^5 bacteria per ml. Cell populations were evaluated by optical density measurements at 620 nm and were calibrated against a set of standards. Hundred (100) μl of a bacterial suspension were added to 100 μl of culture medium (control) or to 100 μl of culture medium containing various tested compound concentrations in 2-fold serial dilutions. Inhibition of proliferation was determined by optical density measurements at 620 nm after an incubation period of 24 hours at 37° C. Data were obtained from ≥2 independent experiments performed in duplicate.

[12] = tested on: wild-type isogenic strain; assay: MIC on wild-type isogenic strain; type: cell-based; conditions: Escherichia coli, data not shown
From the text: as §6, §7

[13] = bacteria exposed in vitro to 5 μM Compound B for 15 minutes, neutropenic mice, 3 days post-infection

Compound: CCCCCCCCCC(=O)NC(CCCN)C(=O)NC(CCCN)C(=O)NCCCCCCCCCCCC(=O)NC(CCCN)C(N)=O (stereo not shown) [Compound B] (Decanoyl-[Orn][Orn][12Ado][Orn]-NH2; configuration not given here)
- CAC, critical aggregation concentration [1]: >100 µM
- CC50 at 3 h (Hemolytic assay): > 100 µM
- MBC (E. coli): > 50 µM
- MBC (K. pneumoniae): > 50 µM
- adverse effects at highest tested dose [2]: did not result in any visible adverse effect
- growth inhibition in combination with lysozyme (Escherichia coli 25922 [3]; growth medium, 2.5, 5, 10 μM Compound B combined with lysozyme, 24 hours): dose-dependent synergistic growth inhibition
- E. coli counts (final, from 4 log) (Escherichia coli 25922 [3]; medium, 10 μM Compound B plus 18 μM lysozyme): 9 log CFU/mL
- growth inhibition in combination with lysozyme [4]: dose-dependent synergistic growth inhibition
- growth kinetics in presence vs absence of compound (E. coli 25922 [5]): practically identical curves
- growth kinetics in presence vs absence of compound (K. pneumoniae 1287): practically identical curves
- animal survival after infection with pretreated bacteria (Escherichia coli 25922 [6]; [13]): 40%
- survival rate (Escherichia coli 25922 [6]; neutropenic ICR mice infected i.p., lower dose administrated twice (1 and 6 hours after inoculation)): 70%
- mice protected from fatal sepsis (survival) (Escherichia coli 25922 [6]; neutropenic ICR mice infected i.p., s.c. single dose 1 hour after inoculation): 40%
- mice protected from developing sepsis (Escherichia coli 25922 [6]; neutropenic ICR mice, Compound B […] s.c. alone, 1 hour after infection): 36%
- animal survival after infection with pretreated bacteria [7, 13]: 70%
- survival frequency ([7]; s.c. double doses): 90%
- survival frequency ([7]; s.c. single dose): 60%
- reduction of the number of inoculated E. coli (Escherichia coli 25922 [8]): 80%
- effect on proliferation in thigh [9]: significantly inhibited proliferation
- CM depolarization (DiSC35 fluorescence) (E. coli 25922 [10]): partial depolarization of the CM
- MIC [11]: 6.3 µM (≈ 4.48 µg/mL)
- MIC [12]: > 50 µM

Source: patent US20200399308A1, “COMPOUNDS AND METHODS FOR ELICITING ANTIMICROBIAL ACTIVITY” (Technion Research & Development Foundation Limited, priority 2018, published 2020)
